# From patent US20260232823A1, “AZA-BENZAZEPINE IMMUNOCONJUGATES, AND USES THEREOF” (BOLT BIOTHERAPEUTICS, INC., priority 2023, published 2026)
# Tests used:
# human TLR7 or human TLR8 = experiment: HEK Reporter Assay (TLR 7/8, receptor not separated); format: cell-based; details: lactam comparator compounds
# Excerpt: It was discovered that the amidine functional group of benzazepine adjuvant compounds, moieties conjugated to antibodies as immunoconjugates (WO 2020/252294; WO 2021/067242; WO 2022/125884; WO 2022/125891; WO 2022/125904; WO 2022/125908; WO 2022/125915), undergoes hydrolysis to the lactam functional group.
# (§1) HEK293 reporter cells expressing human TLR7 or human TLR8 were purchased from Invivogen and vendor protocols were followed for cellular propagation and experimentation. Briefly, cells were grown to 80-85% confluence at 5% CO2 in DMEM supplemented with 10% FBS, Zeocin, and Blasticidin. Cells were then seeded in 96-well flat plates at 4×10^4 cells/well with substrate containing HEK detection medium and immunostimulatory molecules. Activity was measured using a plate reader at 620-655 nm wavelength.
# [1] = hydrolysis of the amidine group to lactam in PBS buffer; format: physicochemical
# Procedure: (§2) The hydrolytic degradation rates of benzazepine and 7-azabenzazepine compounds were directly compared in PBS (pH 7.4) at 37° C. to mimic in vivo effects and in formulation buffer to simulate storage and lifetime effects. […] The half-lives (t½) of aza-benzazepine compounds azaBa-6 and azaBz-8 were 30 days and 40 days, respectively. […] The amount of lactam is normalized for each sample at the start (to) for easier rate comparisons. The 7-aza modification is stabilizing in PBS and formulation buffer by about 5-fold relative to the corresponding benzazepine compounds.
# [2] = hydrolysis of the amidine group to lactam in formulation buffer; format: physicochemical; details: formulation buffer pH 6, 22° C.; read-out: t ½ in formulation buffer (pH 6) at 22° C. (converted)
# Procedure: A nitrogen at the 7-position is stabilizing and slows hydrolysis in aza-benzazepine compounds with a variety of substituents at the 8-position. […] The amount of lactam is normalized for each sample at the start (to) for easier rate comparisons.
# as §2
# human TLR8 = target: T1, human TLR8 (Homo sapiens, UniProt Q9NR97); experiment: HEK Reporter Assay, HEK293 NFKB reporter cells expressing human TLR8; format: cell-based; details: read-out: EC50 against TLR8
# T1 construct: host or cells: HEK293 NFKB reporter cells
# T1 sequence (Q9NR97 27-1041): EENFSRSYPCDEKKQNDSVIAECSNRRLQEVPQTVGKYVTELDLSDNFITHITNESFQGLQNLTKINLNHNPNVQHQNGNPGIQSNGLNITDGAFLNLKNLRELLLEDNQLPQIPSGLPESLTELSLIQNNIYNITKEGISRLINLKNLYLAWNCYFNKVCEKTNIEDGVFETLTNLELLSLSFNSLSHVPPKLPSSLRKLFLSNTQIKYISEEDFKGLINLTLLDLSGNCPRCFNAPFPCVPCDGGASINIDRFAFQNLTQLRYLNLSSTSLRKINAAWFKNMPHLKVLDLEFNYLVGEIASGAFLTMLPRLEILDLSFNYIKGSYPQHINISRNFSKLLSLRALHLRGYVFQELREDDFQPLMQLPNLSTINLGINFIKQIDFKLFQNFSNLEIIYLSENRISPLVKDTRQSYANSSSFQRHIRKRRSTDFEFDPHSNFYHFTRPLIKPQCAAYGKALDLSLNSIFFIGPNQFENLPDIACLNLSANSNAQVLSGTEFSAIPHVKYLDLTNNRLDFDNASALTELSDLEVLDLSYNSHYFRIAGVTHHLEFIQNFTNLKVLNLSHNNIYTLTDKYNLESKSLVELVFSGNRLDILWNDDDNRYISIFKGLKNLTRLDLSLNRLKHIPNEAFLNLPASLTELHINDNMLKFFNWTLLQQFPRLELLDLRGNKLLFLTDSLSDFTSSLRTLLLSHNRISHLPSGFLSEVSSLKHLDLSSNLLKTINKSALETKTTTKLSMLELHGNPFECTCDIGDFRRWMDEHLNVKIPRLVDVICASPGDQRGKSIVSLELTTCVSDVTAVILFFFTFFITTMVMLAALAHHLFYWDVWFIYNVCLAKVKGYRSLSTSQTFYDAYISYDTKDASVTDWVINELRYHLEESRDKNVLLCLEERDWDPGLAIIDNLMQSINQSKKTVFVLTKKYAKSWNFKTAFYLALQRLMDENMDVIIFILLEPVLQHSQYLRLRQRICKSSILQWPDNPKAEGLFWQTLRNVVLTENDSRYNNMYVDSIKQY
# Procedure: (§3) Exemplary aza-benzazepine compounds (azaBza) of Table 1a and comparator compounds (CBz) of Table 1b were synthesized, purified, and characterized by mass spectrometry and shown to have the expected mass. Additional experimental procedures are found in the Examples. Activity against HEK293 NFKB reporter cells expressing human TLR7 or human TLR8 was measured according to Example 202.
# as §1
# human TLR7 = target: T2, human TLR7 (Homo sapiens, UniProt Q9NYK1); experiment: HEK Reporter Assay, HEK293 NFKB reporter cells expressing human TLR7; format: cell-based
# T2 construct: host or cells: HEK293 NFKB reporter cells
# T2 sequence (Q9NYK1 27-1049): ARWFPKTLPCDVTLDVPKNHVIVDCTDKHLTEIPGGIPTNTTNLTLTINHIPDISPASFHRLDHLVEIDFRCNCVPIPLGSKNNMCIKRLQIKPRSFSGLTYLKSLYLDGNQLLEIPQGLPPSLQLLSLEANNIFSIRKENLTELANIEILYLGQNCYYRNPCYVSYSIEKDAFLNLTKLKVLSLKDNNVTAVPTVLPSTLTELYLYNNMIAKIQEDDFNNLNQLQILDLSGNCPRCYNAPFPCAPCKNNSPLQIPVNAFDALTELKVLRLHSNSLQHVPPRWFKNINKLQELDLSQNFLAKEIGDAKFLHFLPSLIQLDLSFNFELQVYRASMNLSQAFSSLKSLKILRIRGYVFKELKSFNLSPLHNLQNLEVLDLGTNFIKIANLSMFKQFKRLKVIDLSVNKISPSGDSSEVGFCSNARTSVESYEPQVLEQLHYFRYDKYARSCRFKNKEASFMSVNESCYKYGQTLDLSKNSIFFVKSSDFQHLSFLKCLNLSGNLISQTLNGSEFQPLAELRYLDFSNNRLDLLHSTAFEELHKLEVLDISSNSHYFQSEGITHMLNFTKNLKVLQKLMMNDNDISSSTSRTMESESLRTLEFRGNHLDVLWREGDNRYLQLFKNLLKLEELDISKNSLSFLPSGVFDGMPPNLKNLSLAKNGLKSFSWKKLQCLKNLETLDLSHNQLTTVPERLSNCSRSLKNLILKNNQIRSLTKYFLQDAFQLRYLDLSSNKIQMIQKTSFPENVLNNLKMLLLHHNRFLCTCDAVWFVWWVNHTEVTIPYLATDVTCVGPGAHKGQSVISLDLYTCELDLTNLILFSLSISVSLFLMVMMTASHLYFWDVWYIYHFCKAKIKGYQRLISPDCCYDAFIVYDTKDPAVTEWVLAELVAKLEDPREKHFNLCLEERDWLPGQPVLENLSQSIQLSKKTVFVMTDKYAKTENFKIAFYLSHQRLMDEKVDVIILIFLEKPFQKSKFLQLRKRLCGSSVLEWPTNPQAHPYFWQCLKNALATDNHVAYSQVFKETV
# Procedure: as §3, §1
# [3] = degradation of amidine to lactam in human plasma; format: in vitro ADME; details: human plasma at room temperature after 24 hours
# Procedure: Amidine benzazepine comparator compound CBz-3 (Table 1b) degrades in PBS buffer (pH 7.4) at 40° C. to produce lactam benzazepine comparator compound CBz-5 (Table 1b) at 90% at 17 days. […] In human plasma at room temperature after 24 hours, 15% of CBz-3 degrades to CBz-5.
# [4] = PBS (pH 7.4) at 37° C., read-out: half-lives (t½), hydrolytic degradation (converted)
# [5] = PBS pH 7.4, 37° C., read-out: t ½ in PBS (pH 7.4) at 37° C. (converted)
compound,measurement,setting,value
CCCN(OCCNC(=O)NC1CCC1)C(=O)C1=Cc2ccc(-c3cnc(CN)nc3)cc2NC(=O)C1 [CBz-9],activity in the HEK assay (TLR 7/8 agonist),human TLR7 or human TLR8,inactive
"CCCN(OCC)C(=O)C1=Cc2ccc(-c3cnc(CN)nc3)cc2N=C(N)C1 [CBz-2, reference compound]",half-life,[1]; [4],6 days
"CCCN(OCCNC(=O)OC(C)(C)C)C(=O)C1=Cc2cnc(C(=O)O)cc2N=C(N)C1 [azaBz-3, 2-amino-4-((2-((tert-butoxycarbonyl)amino)ethoxy)(propyl)carbamoyl)-3H-pyrido[4,3-b]azepine-8-carboxylic acid]",half-life,[2],30 days
same,half-life,[1]; [5],20 days
CCCN(OCC)C(=O)C1=Cc2ccc(-c3cnc(CN)nc3)cc2NC(=O)C1 [CBz-8],activity in the HEK assay (TLR 7/8 agonist),human TLR7 or human TLR8,inactive
CCCN(OCCNC(=O)OC(C)(C)C)C(=O)C1=Cc2ccncc2N=C(N)C1 [azaBz-24],EC50,human TLR8,196 nM
same,EC50,human TLR7; read-out: EC50 against TLR7,842 nM
CCCN(OCC)C(=O)C1=Cc2cnc(S(=O)(=O)NCCOC)cc2N=C(N)C1 [azaBz-7],half-life,[2],100 days
same,half-life,[1]; [5],100 days
CCCN(OCCNC(=O)OC(C)(C)C)C(=O)C1=Cc2cnc(S(=O)(=O)O)cc2N=C(N)C1 [azaBz-5],half-life,[2],50 days
same,half-life,[1]; [5],70 days
"CCCN(OCC)C(=O)C1=Cc2cnc(-c3cnc(CN)nc3)cc2N=C(N)C1 [azaBz-6, 2-amino-8-(2-(aminomethyl)pyrimidin-5-yl)-N-ethoxy-N-propyl-3H-pyrido[4,3-b]azepine-4-carboxamide]",half-life,[2],30 days
same,half-life,[1]; [4],30 days
CCCN(OCC)C(=O)C1=Cc2ccc(-c3cnc(CNC(=O)CCOCCOCCOCCOCCOCCOCCOCCOCCOCCOCCC(=O)O)cn3)cc2N=C(N)C1 [CBz-3],degraded to lactam (CBz-5),[3],15%
CCCN(OCC)C(=O)C1=Cc2cnc(S(=O)(=O)N(C)CCOC)cc2N=C(N)C1 [azaBz-8],half-life,[2],40 days
same,half-life,[1]; [4],40 days
"CCCN(OCC)C(=O)C1=Cc2ccc(C(=O)NCCOC)cc2N=C(N)C1 [CBz-7, reference compound]",half-life,[1]; [4],8 days
CCCN(CCC)C(=O)C1=Cc2ccncc2N=C(N)C1 [azaBz-2],EC50,human TLR8,5500 nM
same,response against TLR7,human TLR7,no response
